Several values for one entry are separate records, joined by “and”; a condition that tells them apart may be missing. Equal values may be shown once. Read-outs that look alike come from different tables or passages of the source.
Key:
AF647‐labeled hCD1d [1] = molecular target: T1, AF647‐labeled hCD1d (Homo sapiens, UniProt P15813+P61769); assay: Microscale thermophoresis (MST) binding assay
T1 construct: TEV protease cleavage site ENLYFQS (C); BirA biotinylation site (C); His7 (C); made in house; host or cells: TurboCHO cells (GenScript)
From the text: (§1) The experimental limitations of ITF, such as low instrument sensitivity, high sample consumption, signal overlap with some ligands, and low throughput (Fossum et al., [2023]), made it necessary to employ alternative, complementary assays to quantify detergent binding to hCD1d. […] MST measures the diffusion of fluorescent molecules in response to microscopic temperature gradients (Seidel et al., [2013]). When a protein forms a complex with a ligand, changes in hydrodynamic properties, charge, or solvation energy alter its thermophoretic behavior, allowing detection of binding events. To perform MST experiments, Alexa Fluor 647 (AF647) dye was covalently attached to the primary amines of hCD1d via standard N‐hydroxysuccinimide coupling chemistry (Anderson et al., [1964]). The concentration of AF647‐hCD1d was kept constant, and the change in MST signal was measured as a function of increasing detergent concentration (Figure S3). Like ITF, any lipid or detergent that destabilizes CD1 can also alter the MST signal since unfolding changes the protein's Stokes radius and its thermophoretic behavior. […] This is why we compare MST results with ITF and nanoDSF, as described below.
(§2) For MST, hCD1d was fluorescently labeled with AF647‐NHS Ester (Invitrogen #A20006). Briefly, a 10 mM stock of AF647‐NHS was prepared in anhydrous DMSO. Then, 100 μL of 50 μM hCD1d in 1X PBS pH 7.4 was mixed with 1 μL of 10 mM AF647‐NHS (1:2 molar ratio of protein: dye). The mixture was allowed to react for 1 h in the dark at 25°C. Unreacted dye was removed from the protein–dye conjugate by performing size exclusion chromatography in the dark with a Superdex 200 Increase 10/300 GL column at a flow rate of 0.5 mL/min in SEC buffer (100 mM NaCl, 20 mM sodium phosphate, pH 7.2). The degree of labeling was determined by a NanoDrop spectrophotometer at A647 nm (dye absorbance) and A280 nm (hCD1d absorbance). The degree of labeling was determined from the ratio of dye concentration to protein concentration. The degree of labeling was ~75%.
(§3) MST experiments were performed using a Monolith NT.115 instrument (NanoTemper Technologies) using Monolith standard capillaries and the red excitation laser setup. The following settings were applied for all MST experiments: excitation power: 30%–50%, MST power: medium, before MST time: 3 s, MST on time (IR laser): 20 seconds, and after MST time: 1 s. MST measurements were analyzed using the Monolith Affinity Analysis software v2.3 and exported for plotting in GraphPad Prism v10.1. Three replicates were performed, and data are presented as the mean ± standard deviation (n = 3).
(§4) MST measurements of 100 nM AF647‐hCD1d were acquired in the absence and presence of detergents in 1X PBS pH 7.4 at 25°C. Prior to data acquisition, hCD1d and detergent or lipid samples were incubated at 37°C overnight (~12 h) to simulate in vitro and in vivo loading conditions. […] For 18:1 LPC experiments: MST data of 100 nM AF647‐hCD1d were acquired in the absence and presence of 18:1 LPC in 1X PBS pH 7.4 at 25°C.

[2] = molecular target: T2, recombinant human CD1d ectodomain/β2m complex (hCD1d) (Homo sapiens, UniProt P15813+P61769); assay: Intrinsic tryptophan fluorescence (ITF) binding assay
T2 construct: TEV protease cleavage site ENLYFQS (C); BirA biotinylation site (C); His7 (C); made in house; host or cells: TurboCHO cells (GenScript)
Description: (§5) For ITF assays, the concentration of hCD1d was kept constant, and intrinsic Trp fluorescence (excitation at 285 nm, emission at 335 nm) was measured as a function of increasing detergent concentration (Fossum et al., [2023]) (Figure S2). The change in relative fluorescence intensity (F − F 0/F 0) provides an indication of binding. […] This was due to limited detergent solubility and decreased hCD1d stability in the presence of a large excess of detergent (see below). […] SDS was the exception, for which Trp fluorescence of hCD1d decreased with added detergent. This could indicate a unique conformational change or destabilization of the protein.
(§6) ITF spectra were recorded from 300 to 500 nm using a Horiba FL3‐21 Fluorometer with the excitation wavelength of 285 nm and excitation/emission slits of 6.2 nm. Fluorescence spectra of 50 to 100 nM hCD1d were acquired in the absence and presence of detergents in 1X PBS pH 7.4 at 25°C. Prior to data acquisition, hCD1d and detergent or lipid samples were incubated at 37°C overnight (~12 h) to simulate in vitro and in vivo loading conditions. […] For 18:1 LPC experiments, fluorescence spectra of 100 nM hCD1d were acquired in the absence and presence of 18:1 LPC in 1X PBS pH 7.4 at 25°C. […] For all ITF experiments, the change in fluorescence signal (F − F 0/F 0) was determined at 335 nm. Three replicates were performed, and data are presented as the mean ± standard deviation (n = 3). K D values were fitted with non‐linear regression in GraphPad Prism v10.1.

[3] = approximate, ref Anatrace catalogue, cited from earlier work
AF647‐labeled hCD1d [4] = molecular target: T3, AF647‐labeled hCD1d (Homo sapiens, UniProt P15813); assay: Microscale thermophoresis (MST) binding assay
T3 construct: TEV protease cleavage site ENLYFQS (C); BirA biotinylation site (C); His7 (C); made in house; host or cells: TurboCHO cells (GenScript)
From the text: as §1, §2, §3, §4

[5] = molecular target: T4, recombinant human CD1d ectodomain/β2m complex (hCD1d) (Homo sapiens, UniProt P15813); assay: Intrinsic tryptophan fluorescence (ITF) binding assay; conditions: detergent with 100 nM hCD1d, 25°C, 1X PBS pH 7.4; apparent; read-out: K D (ITF)
T4 construct: TEV protease cleavage site ENLYFQS (C); BirA biotinylation site (C); His7 (C); made in house; host or cells: TurboCHO cells (GenScript)
Description: as §5, §6

[6] = 0.001 M detergent, 100 nM AF647‐hCD1d
[7] = Figure 5B, detergent binding to hCD1d, read-out: MST - Kd (uM) average
[8] = detergent with 100 nM AF647‐labeled hCD1d, 25°C, apparent, read-out: K D (MST)

T2 sequence (P61769+P15813 fused): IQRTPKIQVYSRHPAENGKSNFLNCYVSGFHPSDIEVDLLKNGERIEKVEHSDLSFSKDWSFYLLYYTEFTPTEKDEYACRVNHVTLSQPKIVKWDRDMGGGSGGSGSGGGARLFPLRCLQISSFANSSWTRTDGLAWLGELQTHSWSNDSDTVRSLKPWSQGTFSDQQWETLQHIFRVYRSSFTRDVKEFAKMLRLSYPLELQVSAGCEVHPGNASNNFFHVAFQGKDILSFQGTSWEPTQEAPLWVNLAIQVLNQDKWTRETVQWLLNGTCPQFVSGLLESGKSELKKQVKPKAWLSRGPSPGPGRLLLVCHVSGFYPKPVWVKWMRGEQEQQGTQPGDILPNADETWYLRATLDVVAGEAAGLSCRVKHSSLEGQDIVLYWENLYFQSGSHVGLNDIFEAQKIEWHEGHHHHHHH
T1 sequence (P61769+P15813 fused): as above
T3 sequence (P15813 whole entry, looked up): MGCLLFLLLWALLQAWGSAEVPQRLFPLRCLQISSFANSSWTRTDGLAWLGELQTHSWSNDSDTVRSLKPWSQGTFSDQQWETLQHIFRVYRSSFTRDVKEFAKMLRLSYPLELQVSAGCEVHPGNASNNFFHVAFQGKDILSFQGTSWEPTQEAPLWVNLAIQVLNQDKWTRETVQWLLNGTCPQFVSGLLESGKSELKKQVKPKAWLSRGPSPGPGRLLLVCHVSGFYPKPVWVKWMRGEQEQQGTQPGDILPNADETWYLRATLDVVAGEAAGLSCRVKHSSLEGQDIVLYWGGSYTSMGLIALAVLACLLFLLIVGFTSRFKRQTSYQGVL
T4 sequence (P15813 whole entry, looked up, the tested form may be a part, one chain of several): as the sequence (P15813 whole entry, looked up) above

Row | Compound | Fnorm (rep 1-3) (AF647‐labeled hCD1d [1]; 3.05176e-8 M detergent) | Fnorm (rep 1-3) (AF647‐labeled hCD1d [1]; 6.10352e-8 M detergent) | Fnorm (rep 1-3) (AF647‐labeled hCD1d [1]; 1.2207e-7 M detergent) | Fnorm (rep 1-3) (AF647‐labeled hCD1d [1]; 2.44141e-7 M detergent) | Fnorm (rep 1-3) (AF647‐labeled hCD1d [1]; 4.88281e-7 M detergent) | Fnorm (rep 1-3) (AF647‐labeled hCD1d [1]; 9.76563e-7 M detergent) | Fnorm (rep 1-3) (AF647‐labeled hCD1d [1]; 1.95313e-6 M detergent) | Fnorm (rep 1-3) (AF647‐labeled hCD1d [1]; 3.90625e-6 M detergent) | Fnorm (rep 1-3) (AF647‐labeled hCD1d [1]; 7.8125e-6 M detergent) | Fnorm (rep 1-3) (AF647‐labeled hCD1d [1]; 1.5625e-5 M detergent) | Fnorm (rep 1-3) (AF647‐labeled hCD1d [1]; 3.125e-5 M detergent) | Fnorm (rep 1-3) (AF647‐labeled hCD1d [1]; 6.25e-5 M detergent) | Fnorm (rep 1-3) (AF647‐labeled hCD1d [1]; 0.000125 M detergent) | Fnorm (rep 1-3) (AF647‐labeled hCD1d [1]; 0.00025 M detergent) | Fnorm (rep 1-3) (AF647‐labeled hCD1d [1]; 0.0005 M detergent) | Fnorm (rep 1-3) (AF647‐labeled hCD1d [1]; [6]) | further results
1 | Tween 20 | 810.612 ‰ and 815.192 ‰ and 809.256 ‰ | 813.29 ‰ and 812.34 ‰ and 811.415 ‰ | 817.136 ‰ and 816.199 ‰ and 816.479 ‰ | 815.645 ‰ and 816.365 ‰ and 812.483 ‰ | 818.589 ‰ and 818.547 ‰ and 817.485 ‰ | 822.035 ‰ and 829.676 ‰ and 823.26 ‰ | 824.959 ‰ and 826.615 ‰ and 828.828 ‰ | 831.241 ‰ and 838.502 ‰ and 830.859 ‰ | 839.917 ‰ and 838.414 ‰ and 840.568 ‰ | 845.364 ‰ and 842.629 ‰ and 839.392 ‰ | 839.617 ‰ and 847.737 ‰ and 840.958 ‰ | 842.166 ‰ and 843.948 ‰ and 838.707 ‰ | 841.26 ‰ and 840.691 ‰ and 839.447 ‰ | 843.661 ‰ and 845.01 ‰ and 840.579 ‰ | 843.68 ‰ and 846.334 ‰ and 839.195 ‰ | 842.084 ‰ and 846.496 ‰ and 844.53 ‰ | Kd (AF647‐labeled hCD1d [1]; [7]): 1.79 µM; Kd (AF647‐labeled hCD1d [1]; [8]): 1.8 ± 0.5 µM; F-F0/F0 (rep 1-3) ([2]; 3.0518e-8 M detergent): 0; F-F0/F0 (rep 1-3) ([2]; 7.8125e-6 M detergent): 0.397 and 0.3783 and 0.411; F-F0/F0 (rep 1-3) ([2]; 1.5625e-5 M detergent): 0.321 and 0.292 and 0.428; F-F0/F0 (rep 1-3) ([2]; 3.125e-5 M detergent): 0.321 and 0.2971 and 0.409; F-F0/F0 (rep 1-3) ([2]; 6.25e-5 M detergent): 0.469 and 0.4298 and 0.387; F-F0/F0 (rep 1-3) ([2]; 0.000125 M detergent): 0.384 and 0.3339 and 0.39; F-F0/F0 (rep 1-3) ([2]; 0.00025 M detergent): 0.511 and 0.3507 and 0.554; F-F0/F0 (rep 1-3) ([2]; 0.0005 M detergent): 0.462 and 0.3634 and 0.631; Kd ([2]; Figure 5A, detergent binding to hCD1d, read-out: ITF - Kd (uM) average): 4.9 µM; Kd ([2]; detergent with 100 nM hCD1d, 25°C, 1X PBS pH 7.4, apparent, read-out: K D (ITF)): 4.9 ± 0.7 µM; CMC [3]: 59 µM; CMC ([3]; weight/volume): 0.0072%
2 | C[C@H](CCC(=O)O)[C@H]1CC[C@H]2[C@@H]3CC[C@@H]4C[C@H](O)CC[C@]4(C)[C@H]3C[C@H](O)[C@]12C [Deoxycholate, sodium deoxycholate] | 795.701 ‰ and 796.724 ‰ and 797.98 ‰ | 794.625 ‰ and 796.029 ‰ and 797.315 ‰ | 793.156 ‰ and 796.701 ‰ and 795.845 ‰ | 795.335 ‰ and 795.616 ‰ and 795.028 ‰ | 795.887 ‰ and 794.029 ‰ and 796.702 ‰ | 796.103 ‰ and 795.392 ‰ and 796.86 ‰ | 795.057 ‰ and 792.832 ‰ and 795.608 ‰ | 796.418 ‰ and 796.702 ‰ and 795.904 ‰ | 795.548 ‰ and 798.002 ‰ and 797.636 ‰ | 795.128 ‰ and 798.849 ‰ and 799.048 ‰ | 798.119 ‰ and 798.444 ‰ and 799.423 ‰ | 800.962 ‰ and 799.886 ‰ and 803.305 ‰ | 801.785 ‰ and 804.744 ‰ and 805.19 ‰ | 804.206 ‰ and 807.083 ‰ and 805.968 ‰ | 808.515 ‰ and 808.171 ‰ and 806.841 ‰ | 814.33 ‰ and 809.551 ‰ and 810.963 ‰ | binding to hCD1d by MST (in words) (AF647‐labeled hCD1d [1]): observable binding; Kd (AF647‐labeled hCD1d [4]; [7]): 103 µM; Kd (AF647‐labeled hCD1d [4]; [8]): > 10000 µM; binding to hCD1d by ITF (in words) [2]: No significant binding; Kd [5]: > 10000 µM

Source: paper PMC12720774, “Detergents alter the stability and lipid binding properties of the CD1d immunoreceptor” (Protein Science : A Publication of the Protein Society, 2025)
